Results published in patent US20240245793A1, “PSD-95 INHIBITORS AND USES THEREOF” (priority 2021, published 2024).
Read-outs that look alike come from different tables or passages of the source. No end group written: not given here.

Key:
[1] = test system: patients with ischemic stroke undergoing endovascular thrombectomy; settings: cited from earlier work
plasmin = target: T1, plasmin (Homo sapiens, UniProt P00747); settings: plasmin generated by tPA; cited from earlier work
T1 construct: Tissue plasminogen factor (tPA), which generates plasmin from plasminogen

pMCAO mice = settings: cited from earlier work; for neuroprotective properties: mice, pMCAO, same experimental conditions and dose (3 nmol/g)
PDZ1 and PDZ2 of PSD-95 = settings: in vitro FP assay; read-out: Ki values towards PDZ1 and PDZ2 of PSD-95; cited from earlier work
[2] = In vitro plasma stability in undiluted pooled human plasma; type: in vitro ADME
Protocol: At selected time points during the incubation, the ligands were extracted from the assay matrix by adding assay matrix to 6M Urea followed by precipitation using 20% TCA in acetone. After overnight incubation, the samples were filtered and analysed by UPLC to determine the amount of ligand remaining. LC-MS analysis was performed to confirm ligand integrity and identify cleavage sites.

PDZ1-2 of PSD-95 = PDZ1-2 of PSD-95 (Homo sapiens, UniProt P78352); test: Fluorescence polarization (FP) competition assay, affinity to PDZ1-2 of PSD-95; type: binding; settings: NPEG4-(KETLV)2 fused to polyArg CPP-tags; mean ± SEM, n ≥ 3 (Table 7, FIG. 4)
Protocol: First, a saturation binding curve was obtained to determine KD values for the interaction between a fluorescent dimeric probe and PDZ1-2 of PSD-95. Increasing concentrations of PDZ1-2 (0.015-30 nM) were added to a constant concentration of the probe (0.5 nM). The fluorescence polarization (FP) of the sample was measured at excitation/emission wavelength of 635/670 nm and the generated FP values were fitted to a one site binding model using the software GraphPad Prism. […] The FP values were fitted to a one site competition (variable slope) model in GraphPad prism. The resulting IC50 values were converted to Ki values as described previously by Nikolovska-Coleska et al., Anal. Biochem., 2004, 332, 261).

Chain of PDZ1-2 of PSD-95 (P78352 61-249 limits assumed): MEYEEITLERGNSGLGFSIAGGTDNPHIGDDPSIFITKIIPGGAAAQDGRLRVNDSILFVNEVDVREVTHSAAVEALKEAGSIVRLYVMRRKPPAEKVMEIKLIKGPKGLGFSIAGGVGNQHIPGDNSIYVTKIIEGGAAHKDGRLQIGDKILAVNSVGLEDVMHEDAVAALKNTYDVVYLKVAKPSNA
T1 sequence (P00747 581-810 limits assumed, species assumed): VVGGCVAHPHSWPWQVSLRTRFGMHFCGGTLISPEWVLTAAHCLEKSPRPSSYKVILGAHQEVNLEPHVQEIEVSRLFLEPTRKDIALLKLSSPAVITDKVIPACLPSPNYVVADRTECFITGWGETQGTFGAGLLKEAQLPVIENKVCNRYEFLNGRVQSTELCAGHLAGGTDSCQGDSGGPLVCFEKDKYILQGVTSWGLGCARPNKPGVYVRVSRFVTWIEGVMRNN
T1 sequence (P00747 97-580 partner limits assumed, species assumed): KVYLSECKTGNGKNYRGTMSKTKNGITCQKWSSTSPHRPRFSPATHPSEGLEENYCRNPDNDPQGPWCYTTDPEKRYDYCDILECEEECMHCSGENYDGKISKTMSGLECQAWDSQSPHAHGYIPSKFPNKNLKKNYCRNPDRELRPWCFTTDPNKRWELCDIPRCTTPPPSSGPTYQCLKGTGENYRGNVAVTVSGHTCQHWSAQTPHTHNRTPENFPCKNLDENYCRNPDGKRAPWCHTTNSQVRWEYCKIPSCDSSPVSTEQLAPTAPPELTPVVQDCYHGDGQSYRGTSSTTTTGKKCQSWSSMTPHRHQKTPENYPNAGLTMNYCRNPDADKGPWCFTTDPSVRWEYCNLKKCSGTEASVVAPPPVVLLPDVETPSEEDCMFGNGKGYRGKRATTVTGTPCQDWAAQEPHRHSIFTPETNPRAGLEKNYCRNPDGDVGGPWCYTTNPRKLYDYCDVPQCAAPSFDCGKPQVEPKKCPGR

For YGRKKRRQRRRKLSSIESDV [nerinetide], the clinical effect ([1]; group not receiving alteplase) is listed as “improved functional outcomes, reduced mortality, and reduced infarction volumes”, the clinical effect ([1]; patients receiving alteplase) is listed as “not effective” and the cleavage by plasmin (plasmin) is listed as “cleaves nerinetide”. The neuroprotective properties (pMCAO mice) was “did not show significant neuroprotective properties” and the Ki (PDZ1 and PDZ2 of PSD-95) was 5000 to 10000 nM.

In the case of `CC(=O)N[C@@H](CCCNC(=N)N)C(=O)N[C@@H](CCCNC(=N)N)C(=O)N[C@@H](CCCNC(=N)N)C(=O)N[C@@H](CCCNC(=N)N)C(=O)N(CCOCCOCCC(=O)N[C@@H](CCCCN)C(=O)N[C@@H](CCC(=O)O)C(=O)N[C@H](C(=O)N[C@@H](CC(C)C)C(=O)N[C@H](C(=O)O)C(C)C)[C@@H](C)O)CCOCCOCCC(=O)N[C@@H](CCCCN)C(=O)N[C@@H](CCC(=O)O)C(=O)N[C@H](C(=O)N[C@@H](CC(C)C)C(=O)N[C@H](C(=O)O)C(C)C)[C@@H](C)O` [Compound 73], the half-life at 100 μM ([2]; human) is reported as 15.2 ± 3.6 h and the Ki (PDZ1-2 of PSD-95) is reported as 11.1 ± 0.9 nM.

In the case of `CC(=O)N[C@@H](CCCNC(=N)N)C(=O)N[C@@H](CCCNC(=N)N)C(=O)N[C@@H](CCCNC(=N)N)C(=O)N[C@@H](CCCNC(=N)N)C(=O)N[C@@H](CCCNC(=N)N)C(=O)N[C@@H](CCCNC(=N)N)C(=O)N(CCOCCOCCC(=O)N[C@@H](CCCCN)C(=O)N[C@@H](CCC(=O)O)C(=O)N[C@H](C(=O)N[C@@H](CC(C)C)C(=O)N[C@H](C(=O)O)C(C)C)[C@@H](C)O)CCOCCOCCC(=O)N[C@@H](CCCCN)C(=O)N[C@@H](CCC(=O)O)C(=O)N[C@H](C(=O)N[C@@H](CC(C)C)C(=O)N[C@H](C(=O)O)C(C)C)[C@@H](C)O` [Compound 69], the T1/2 ([2]; 100 μM ligand, 37° C., […], mean ± SEM (Table 13, FIG. 10)) is reported as 24 ± 0 h and the Ki (PDZ1-2 of PSD-95) is reported as 8.6 ± 0.3 nM.

In the case of `CC[C@H](C)[C@H](NC(=O)CCOCCOCCOCCOCCOCCC(=O)N[C@H](C(=O)N[C@@H](CCC(=O)O)C(=O)N[C@H](C(=O)N[C@@H](CC(=O)O)C(=O)N[C@H](C(=O)O)C(C)C)[C@@H](C)O)[C@@H](C)CC)C(=O)N[C@@H](CCC(=O)O)C(=O)N[C@H](C(=O)N[C@@H](CC(=O)O)C(=O)N[C@H](C(=O)O)C(C)C)[C@@H](C)O` [Compound 1, OPEG4-(IETDV)2], the neuroprotective properties (pMCAO mice) is given as “showed no neuroprotective properties” and the reaching the brain (pMCAO mice; mouse, in vivo) is given as “did not reach the brain”.
